Reference: patent EP4722212A1, “NOVEL COMPOUND FOR INHIBITING PROTEIN KINASES AND PHARMACEUTICAL COMPOSITION COMPRISING SAME” (Magicbullettherapeutics Co., Ltd., priority 2023, dated 2024)

What was measured:
C4-2B = test: Cell line inhibition analysis (CCK-8, 72 h); type: cell-based; details: read-out: Cell growth inhibition GI50 C4-2B
Experimental: (§1) C4-2B and 22Rv1 cells were purchased from ATCC and cultured according to the manufacturer's instructions. The cells were seeded in 96-well plates at 7×10^3cells/100 µl/well and allowed to attach for one day. After removing the culture medium, 90 µl/well of fresh culture medium was added, followed by addition of 10 µl/well of culture medium containing compounds at nine concentrations (0.076-500 µM) serially diluted 3-fold and DMSO control to achieve final concentrations of 0-50 µM, and then cultured for 72 hours in a 37 °C CO2 incubator. Cell proliferation after 72 hours was assessed by adding 10 µl/well of CCK-8 solution, orbital shaking for 30 seconds, then incubating at 37 °C CO2 incubator for 2 hours and measuring absorbance at 450 nm using a microplate reader. The measured absorbance values were corrected by subtracting the absorbance of wells containing only culture medium and CCK-8 solution, and GI50 values were calculated using GraphPad Prism 8 software.
(§2) Meanwhile, in a separate 96-well plate, cells were seeded at 7 × 10^3 cells/100 µl/well, allowed to attach for one day, CCK-8 solution was added, and absorbance was measured to establish the 'Growth (%) = 0' value.

ACK1 = biological target: T1, ACK1 (Homo sapiens, UniProt Q07912); test: Enzyme activity inhibition (Reaction Biology); type: biochemical
T1 construct: purchased Reaction Biology (RBC)
T1 sequence (Q07912 whole entry): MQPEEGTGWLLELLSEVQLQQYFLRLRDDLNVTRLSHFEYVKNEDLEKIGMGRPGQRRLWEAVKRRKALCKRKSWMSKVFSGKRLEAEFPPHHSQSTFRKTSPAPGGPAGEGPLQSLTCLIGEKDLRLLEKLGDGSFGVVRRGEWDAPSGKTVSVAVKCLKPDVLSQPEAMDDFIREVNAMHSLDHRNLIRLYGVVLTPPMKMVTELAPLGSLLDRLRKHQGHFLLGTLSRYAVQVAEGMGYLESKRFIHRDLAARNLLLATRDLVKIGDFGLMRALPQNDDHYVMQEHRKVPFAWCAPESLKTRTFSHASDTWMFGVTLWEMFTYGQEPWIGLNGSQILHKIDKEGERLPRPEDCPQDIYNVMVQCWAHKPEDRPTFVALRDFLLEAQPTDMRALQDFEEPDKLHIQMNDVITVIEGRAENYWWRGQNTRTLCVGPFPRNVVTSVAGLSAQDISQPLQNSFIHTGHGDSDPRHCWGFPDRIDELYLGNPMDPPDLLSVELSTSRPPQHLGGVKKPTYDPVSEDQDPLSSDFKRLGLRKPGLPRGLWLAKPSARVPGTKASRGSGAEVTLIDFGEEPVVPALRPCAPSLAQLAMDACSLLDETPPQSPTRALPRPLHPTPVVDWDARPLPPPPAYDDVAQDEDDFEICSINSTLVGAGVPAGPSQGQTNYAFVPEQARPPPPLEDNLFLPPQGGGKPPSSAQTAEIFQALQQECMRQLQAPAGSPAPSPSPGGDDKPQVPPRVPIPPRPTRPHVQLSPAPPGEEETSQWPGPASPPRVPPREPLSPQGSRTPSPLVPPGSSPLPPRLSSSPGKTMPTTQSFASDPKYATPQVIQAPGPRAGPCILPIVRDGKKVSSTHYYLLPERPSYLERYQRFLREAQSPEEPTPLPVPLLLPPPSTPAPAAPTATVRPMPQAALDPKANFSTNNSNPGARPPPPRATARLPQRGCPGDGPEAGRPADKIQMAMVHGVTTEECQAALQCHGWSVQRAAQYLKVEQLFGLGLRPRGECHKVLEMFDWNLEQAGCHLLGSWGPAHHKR
Experimental: (§3) [* <10 nM: A, <100 nM: B, >100 nM: C]. [Table 7]

Src = biological target: T2, Src (Homo sapiens, UniProt P12931); test: Enzyme activity inhibition (Reaction Biology); type: biochemical
T2 construct: purchased Reaction Biology (RBC)
T2 sequence (P12931 whole entry): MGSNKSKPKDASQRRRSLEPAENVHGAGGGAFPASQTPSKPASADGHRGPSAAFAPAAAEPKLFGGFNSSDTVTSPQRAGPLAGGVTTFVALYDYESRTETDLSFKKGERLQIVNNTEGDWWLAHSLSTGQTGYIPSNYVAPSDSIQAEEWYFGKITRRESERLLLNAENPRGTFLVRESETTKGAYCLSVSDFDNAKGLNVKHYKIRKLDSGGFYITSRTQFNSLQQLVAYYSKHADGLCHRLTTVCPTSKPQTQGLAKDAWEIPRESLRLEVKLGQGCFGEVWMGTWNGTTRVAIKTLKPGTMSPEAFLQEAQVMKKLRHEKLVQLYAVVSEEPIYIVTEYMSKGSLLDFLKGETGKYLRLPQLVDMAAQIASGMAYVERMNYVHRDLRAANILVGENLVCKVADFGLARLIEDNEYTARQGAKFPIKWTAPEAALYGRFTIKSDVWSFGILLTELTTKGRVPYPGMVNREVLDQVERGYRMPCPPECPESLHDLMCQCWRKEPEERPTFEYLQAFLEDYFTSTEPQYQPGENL
Experimental: as §3

BMX = biological target: T3, BMX (Homo sapiens, UniProt P51813); test: Enzyme activity inhibition (Reaction Biology); type: biochemical
T3 construct: purchased Reaction Biology (RBC)
T3 sequence (P51813 1-675): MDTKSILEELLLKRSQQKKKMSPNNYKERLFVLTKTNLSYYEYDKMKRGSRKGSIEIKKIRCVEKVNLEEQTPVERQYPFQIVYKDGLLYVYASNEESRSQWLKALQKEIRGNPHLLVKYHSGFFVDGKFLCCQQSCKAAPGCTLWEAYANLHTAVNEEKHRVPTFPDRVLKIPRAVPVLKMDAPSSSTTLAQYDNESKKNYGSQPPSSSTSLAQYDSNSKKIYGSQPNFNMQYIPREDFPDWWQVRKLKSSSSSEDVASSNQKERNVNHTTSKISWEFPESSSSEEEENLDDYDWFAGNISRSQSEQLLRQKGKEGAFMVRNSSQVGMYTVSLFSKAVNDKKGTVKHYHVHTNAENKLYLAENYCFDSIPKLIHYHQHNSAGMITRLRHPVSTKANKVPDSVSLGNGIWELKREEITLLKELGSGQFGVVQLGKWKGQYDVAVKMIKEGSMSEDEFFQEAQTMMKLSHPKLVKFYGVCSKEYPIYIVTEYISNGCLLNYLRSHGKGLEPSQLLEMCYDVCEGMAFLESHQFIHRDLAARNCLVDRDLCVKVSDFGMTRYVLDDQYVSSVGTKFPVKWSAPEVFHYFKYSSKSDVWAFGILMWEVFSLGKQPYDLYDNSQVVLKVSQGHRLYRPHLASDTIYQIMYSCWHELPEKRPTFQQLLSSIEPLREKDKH
Experimental: as §3

HT-29 = test: Cell line inhibition analysis (CCK-8, 72 h); type: cell-based; details: Homo sapiens, read-out: Cell growth inhibition GI50 HT-29
Experimental: as §1, §2
(§4) Furthermore, experiments were conducted on A172, A549, HCI-H460, AsPC-1, MIA-Paca-2, DLD-1, HCT-116, HT-29, SW480, SW620, MDA-MB-231, and SKOV3 cell lines using the same method, with results shown in Tables 9 and 10 below [* <1 µM: A, <5 µM: B, <10 µM: C, >10 µM: D].

A172 = test: Cell line inhibition analysis (CCK-8, 72 h); type: cell-based; details: Homo sapiens, A 172; read-out: Cell growth inhibition GI50 A172
Experimental: as §1, §2, §4

A549 = test: Cell line inhibition analysis (CCK-8, 72 h); type: cell-based; details: Homo sapiens, read-out: Cell growth inhibition GI50 A549
Experimental: as §1, §2, §4

22Rv1 = test: Cell line inhibition analysis (CCK-8, 72 h); type: cell-based; details: Homo sapiens; 22Rv1, 72 hours; read-out: Cell growth inhibition GI50 22Rv1
Experimental: as §1, §2

SW480 = test: Cell line inhibition analysis (CCK-8, 72 h); type: cell-based; details: Homo sapiens, read-out: Cell growth inhibition GI50 SW480
Experimental: as §1, §2, §4

HCT-116 = test: Cell line inhibition analysis (CCK-8, 72 h); type: cell-based; details: Homo sapiens, read-out: Cell growth inhibition GI50 HCT-116
Experimental: as §1, §2, §4

SW620 = test: Cell line inhibition analysis (CCK-8, 72 h); type: cell-based; details: Homo sapiens, SW-620; read-out: Cell growth inhibition GI50 SW620
Experimental: as §1, §2, §4

AsPC-1 = test: Cell line inhibition analysis (CCK-8, 72 h); type: cell-based; details: Homo sapiens, ASPC1; read-out: Cell growth inhibition GI50 AsPC-1
Experimental: as §1, §2, §4

Row | Compound | IC50 (ACK1) [nM] | IC50 (Src) [nM] | IC50 (BMX) [nM] | GI50 (22Rv1) [nM] | GI50 (C4-2B) [nM] | other results
1 | Cc1ccc(NC(=O)c2cc(C(F)(F)F)ccc2Cl)cc1N1Cc2cnc(N)nc2C2(CC2)C1=O [Compound 25, N-(3-(2'-amino-7'-oxo-5'H-spiro[cyclopropane-1,8'-pyrido[4,3-d]pyrimidine]-6'(7'H)-yl)-4-methylphenyl)-2-chloro-5-(trifluoromethyl)benzamide] | 10 to 100 | > 100 | > 100 |  | > 10000 | 
2 | Cc1ccc(NC(=O)c2cccc(C(F)(F)F)c2)cc1N1Cc2cnc(N[C@@H](C)CO)nc2C2(CC2)C1=O [Compound 127, (S)-N-(3-(2'-((1-hydroxypropan-2-yl)amino)-7'-oxo-5'H-spiro[cyclopropane-1,8'-pyrido[4,3-d]pyrimidine]-6'(7'H)-yl)-4-methylphenyl)-3-(trifluoromethyl)benzamide] |  |  |  |  |  | GI50 (HT-29): > 10000 nM; GI50 (A172): < 1000 nM; GI50 (A549): > 10000 nM
3 | Cc1ccc(NC(=O)c2ccc(Cl)c(C(F)(F)F)c2)cc1N1Cc2cnc(N)nc2C2(CC2)C1=O [Compound 5, N-(3-(2'-amino-7'-oxo-5'H-spiro[cyclopropane-1,8'-pyrido[4,3-d]pyrimidine]-6'(7'H)-yl)-4-methylphenyl)-4-chloro-3-(trifluoromethyl)benzamide] |  |  |  | 1000 to 5000 | 1000 to 5000 | 
4 | Cc1cn(-c2cc(C(=O)Nc3ccc(C)c(N4Cc5cnc(N)nc5C5(CC5)C4=O)c3)cc(C(F)(F)F)c2)cn1 [Compound 6, N-(3-(2'-amino-7'-oxo-5'H-spiro[cyclopropane-1,8'-pyrido[4,3-d]pyrimidine]-6'(7'H)-yl)-4-methylphenyl)-3-(4-methyl-1H-imidazol-1-yl)-5-(trifluoromethyl)benzamide] | < 10 | < 10 | < 10 | < 1000 | 1000 to 5000 | 
5 | Cc1ccc(NC(=O)c2cncc(C(F)(F)F)c2)cc1N1Cc2cnc(NCCO)nc2C2(CC2)C1=O [Compound 130, N-(3-(2'-((2-hydroxyethyl)amino)-7'-oxo-5'H-spiro[cyclopropane-1,8'-pyrido[4,3-d]pyrimidine]-6'(7'H)-yl)-4-methylphenyl)-5-(trifluoromethyl)nicotinamide] |  |  |  |  |  | GI50 (HT-29): > 10000 nM; GI50 (A172): 1000 to 5000 nM; GI50 (A549): > 10000 nM
6 | COc1ccc(-c2cc(C(=O)Nc3ccc(C)c(N4Cc5cnc(N)nc5C5(CC5)C4=O)c3)cc(C(F)(F)F)c2)cc1 [Compound 20, N-(3-(2'-amino-7'-oxo-5'H-spiro[cyclopropane-1,8'-pyrido[4,3-d]pyrimidine]-6'(7'H)-yl)-4-methylphenyl)-4'-methoxy-5-(trifluoromethyl)-[1,1'-biphenyl]-3-carboxamide] | 10 to 100 | 10 to 100 | 10 to 100 |  | < 1000 | 
7 | Cc1ccc(NC(=O)c2cccc(C(F)(F)F)c2)cc1N1Cc2cnc(Nc3ccc(CN4CCN(C)CC4)cc3)nc2C2(CC2)C1=O [Compound 43, N-(4-methyl-3-(2'-((4-((4-methylpiperazin-1-yl)methyl)phenyl)amino)-7'-oxo-5'H-spiro[cyclopropane-1,8'-pyrido[4,3-d]pyrimidine]-6'(7'H)-yl)phenyl)-3-(trifluoromethyl)benzamide] |  |  |  |  |  | GI50 (HCT-116): < 1000 nM; GI50 (AsPC-1): < 1000 nM
8 | Cc1ccc(NC(=O)c2cc(Cl)cc(C(F)(F)F)c2)cc1N1Cc2cnc(N)nc2C2(CC2)C1=O [Compound 26, N-(3-(2'-amino-7'-oxo-5'H-spiro[cyclopropane-1,8'-pyrido[4,3-d]pyrimidine]-6'(7'H)-yl)-4-methylphenyl)-3-chloro-5-(trifluoromethyl)benzamide] | 10 to 100 | < 10 | < 10 | < 1000 | < 1000 | 
9 | COc1cc(C(=O)Nc2ccc(C)c(N3Cc4cnc(N)nc4C4(CC4)C3=O)c2)cc(C(F)(F)F)c1 [Compound 19, N-(3-(2'-amino-7'-oxo-5'H-spiro[cyclopropane-1,8'-pyrido[4,3-d]pyrimidine]-6'(7'H)-yl)-4-methylphenyl)-3-methoxy-5-(trifluoromethyl)benzamide] | < 10 | < 10 | < 10 | 1000 to 5000 | 1000 to 5000 | 
10 | Cc1ccc(NC(=O)c2ccc(F)c(C(F)(F)F)c2)cc1N1Cc2cnc(N)nc2C2(CC2)C1=O [Compound 4, N-(3-(2'-amino-7'-oxo-5'H-spiro[cyclopropane-1,8'-pyrido[4,3-d]pyrimidine]-6'(7'H)-yl)-4-methylphenyl)-4-fluoro-3-(trifluoromethyl)benzamide] |  |  |  | 1000 to 5000 | 1000 to 5000 | 
11 | Cc1cc(Nc2ncc3c(n2)C2(CC2)C(=O)N(c2cc(NC(=O)c4cccc(C(F)(F)F)c4)ccc2C)C3)n(C)n1 [Compound 1, N-(3-(2'-((1,3-dimethyl-1H-pyrazol-5-yl)amino)-7'-oxo-5'H-spiro[cyclopropane-1,8'-pyrido[4,3-d]pyrimidin]-6'(7'H)-yl)-4-methylphenyl)-3-(trifluoromethyl)benzamide] | < 10 | < 10 | < 10 |  | 1000 to 5000 | 
12 | Cc1ccc(NC(=O)c2cccc(C(F)(F)F)c2)cc1N1Cc2cnc(Nc3ccc(N4CCN(C)CC4)cc3)nc2C2(CC2)C1=O [Compound 38, N-(4-methyl-3-(2'-((4-(4-methylpiperazin-1-yl)phenyl)amino)-7'-oxo-5'H-spiro[cyclopropane-1,8'-pyrido[4,3-d]pyrimidine]-6'(7'H)-yl)phenyl)-3-(trifluoromethyl)benzamide] |  |  |  |  |  | GI50 (SW480): < 1000 nM; GI50 (HCT-116): < 1000 nM; GI50 (SW620): < 1000 nM; GI50 (AsPC-1): < 1000 nM

Now from value to molecule, other results behind:

Row | IC50 (ACK1) [nM] | IC50 (Src) [nM] | IC50 (BMX) [nM] | GI50 (22Rv1) [nM] | Compound | GI50 (C4-2B) [nM] | other results
13 | 10 to 100 | > 100 | < 10 |  | Cc1ccc(NC(=O)c2cc(N3CCOCC3)cc(C(F)(F)F)c2)cc1N1Cc2cnc(NC3CC3)nc2C2(CC2)C1=O [Compound 28, N-(3-(2'-(cyclopropylamino)-7'-oxo-5'H-spiro[cyclopropane-1,8'-pyrido[4,3-d]pyrimidine]-6'(7'H)-yl)-4-methylphenyl)-3-morpholino-5-(trifluoromethyl)benzamide] | 1000 to 5000 | GI50 (SW480): 1000 to 5000 nM; GI50 (HCT-116): < 1000 nM; GI50 (SW620): 1000 to 5000 nM; GI50 (AsPC-1): 5000 to 10000 nM
14 | 10 to 100 | 10 to 100 | < 10 |  | COCCN(C)c1cc(C(=O)Nc2ccc(C)c(N3Cc4cnc(N)nc4C4(CC4)C3=O)c2)cc(C(F)(F)F)c1 [Compound 31, N-(3-(2'-amino-7'-oxo-5'H-spiro[cyclopropane-1,8'-pyrido[4,3-d]pyrimidine]-6'(7'H)-yl)-4-methylphenyl)-3-((2-methoxyethyl)(methyl)amino)-5-(trifluoromethyl)benzamide] | 1000 to 5000 | 
15 | 10 to 100 | < 10 | < 10 |  | Cc1ccc(NC(=O)c2cc(N3CCOCC3)cc(C(F)(F)F)c2)cc1N1Cc2cnc(N)nc2C2(CC2)C1=O [Compound 29, N-(3-(2'-amino-7'-oxo-5'H-spiro[cyclopropane-1,8'-pyrido[4,3-d]pyrimidine]-6'(7'H)-yl)-4-methylphenyl)-3-morpholino-5-(trifluoromethyl)benzamide] | 1000 to 5000 | 
